Assay: xn = mol fraction of the nth substance listed
Conditions: Liquid, Vibrating tube method

COC(=O)c1ccccc1 [methyl benzoate] + CCCCCCO
mass density [kg/m3]
Conditions | x1 = 0.1004 | x1 = 0.2007 | x1 = 0.3007 | x1 = 0.4013 | x1 = 0.5005 | x1 = 0.6009 | x1 = 0.7 | x1 = 0.8008 | x1 = 0.9009
308.15 K, 20000 kPa | – | – | 900.3 | 926.9 | 953.2 | 979.8 | 1006.1 | 1032.8 | 1059.4
308.15 K, 25000 kPa | 850.6 | 877 | 903.4 | 930 | 956.3 | 982.9 | 1009.1 | 1035.8 | 1062.5
308.15 K, 30000 kPa | 853.6 | 879.9 | 906.4 | 933 | 959.3 | 985.9 | 1012.1 | 1038.8 | 1065.3
308.15 K, 35000 kPa | 856.5 | 882.8 | 909.3 | 935.9 | 962.1 | 988.8 | 1014.9 | 1041.7 | 1068.2
308.15 K, 40000 kPa | 859.3 | 885.7 | 912.1 | 938.7 | 965 | 991.6 | 1017.7 | 1044.5 | 1071
308.15 K, 45000 kPa | 862.1 | 888.4 | 914.9 | 941.5 | 967.8 | 994.3 | 1020.5 | 1047.2 | 1073.7
308.15 K, 50000 kPa | 864.7 | 891.1 | 917.6 | 944.1 | 970.5 | 997.1 | 1023.2 | 1049.9 | 1076.4
308.15 K, 55000 kPa | 867.4 | 893.7 | 920.2 | 946.8 | 973.1 | 999.7 | 1025.8 | 1052.5 | 1079.1
308.15 K, 60000 kPa | 869.7 | 896.1 | 922.6 | 949.4 | 975.5 | 1002.1 | 1028.2 | 1055 | 1081.5
318.15 K, 100 kPa | 826.4 | 852.5 | 878.7 | 905.1 | 931.2 | 957.7 | 983.9 | 1010.7 | 1037.2
318.15 K, 1000 kPa | 827.1 | 853.1 | 879.4 | 905.8 | 931.9 | 958.4 | 984.6 | 1011.3 | 1037.8
318.15 K, 5000 kPa | 830.1 | 856.2 | 882.4 | 908.7 | 934.8 | 961.3 | 987.5 | 1014.2 | 1040.7
318.15 K, 10000 kPa | 833.8 | 859.7 | 886 | 912.3 | 938.4 | 964.9 | 991 | 1017.6 | 1044.1
318.15 K, 15000 kPa | 837.2 | 863.2 | 889.4 | 915.8 | 941.8 | 968.2 | 994.3 | 1021 | 1047.4
318.15 K, 20000 kPa | 840.6 | 866.6 | 892.8 | 919.1 | 945.2 | 971.5 | 997.6 | 1024.3 | 1050.6
318.15 K, 25000 kPa | 843.8 | 869.8 | 896 | 922.3 | 948.4 | 974.6 | 1000.8 | 1027.4 | 1053.8

— the NIST ThermoML archive (doi:10.1016/j.jct.2011.02.008)
